{"source": "patent US20160158246A1", "about": "“METHOD OF TREATING DIFFUSE LARGE B-CELL LYMPHOMA (DLBCL) USING A BET-BROMODOMAIN INHIBITOR” (ONCOETHIX GMBH, priority 2013, published 2016)", "key": {"[1]": {"test_system": "DLBCL cell lines (SU-DHL-6, SU-DHL-2)", "assay": "gene expression profiling (Illumina HumanHT-12 Expression BeadChips)", "type": "cell-based", "protocol": "Baseline gene expression profiles (GEP) were obtained in 38 lymphoma cell lines, including 22 DLBCL with Illumina HumanHT-12 v4 Expression BeadChip. GEP before and after OTX015 treatment were done in […] DLBCL cell lines, too. The relationship between GEP and IC50 values was assessed by Pearson correlation. LIMMA was used for differential expression analysis, followed by Benjamini-Hochberg multiple test correction, and GSEA to test for enrichment of functionally-related genes.\nCell lines: 22 diffuse large B-cell lymphoma (DLBCL), 4 mantle cell lymphomas, 3 multiple myelomas, 3 splenic marginal zone lymphoma and 1 prolymphocytic leukemia. Anti-proliferative of OTX015 (OncoEthix SA, Switzerland) was assessed by MTT and its cytotoxic activity by Annexin V staining and gene expression profiling (GEP) with Illumina HumanHT-12 Expression BeadChips. Data mining was done with LIMMA, GSEA, Metacore.\nWe performed GEP on 2 cell lines (SU-DHL-6, SU-DHL-2), treated with DMSO or OTX015 (500 nM) for 1, 2, 4, 8 or 12 hours."}, "[2]": {"test_system": "IL10 and IL4 production", "assay": "IL10 and IL4 production", "type": "cell-based", "details": "after 24 hours treatment"}, "[3]": {"test_system": "pSTAT3 and p50 (NFKB 1) in ABC cell lines", "assay": "immunoblotting and immunohistochemistry", "type": "cell-based"}, "[4]": {"test_system": "NFKB target genes (IRF4, TNFAIP3 and BIRC3)", "assay": "PCR of NFKB target genes", "type": "cell-based"}, "[5]": {"molecular_target": "mTORC1 (Homo sapiens, UniProt P42345)", "details": "cited from earlier work"}, "[6]": {"test_system": "pAktS473, pGSK3βS9, pS6, pMAPK, pAktT308", "details": "cited from earlier work"}, "[7]": {"molecular_target": "mTORC2 (Homo sapiens, UniProt P42345)", "details": "cited from earlier work"}, "[8]": {"test_system": "PKC", "details": "cited from earlier work"}, "[9]": {"test_system": "Lyn, Syk, PKA, casein kinase I, ERK1, ERK2 and p38 kinase", "details": "cited from earlier work"}, "[10]": {"molecular_target": "BTK and PKCβII (Homo sapiens, UniProt Q06187)", "sequence (Q06187 whole entry, species assumed)": "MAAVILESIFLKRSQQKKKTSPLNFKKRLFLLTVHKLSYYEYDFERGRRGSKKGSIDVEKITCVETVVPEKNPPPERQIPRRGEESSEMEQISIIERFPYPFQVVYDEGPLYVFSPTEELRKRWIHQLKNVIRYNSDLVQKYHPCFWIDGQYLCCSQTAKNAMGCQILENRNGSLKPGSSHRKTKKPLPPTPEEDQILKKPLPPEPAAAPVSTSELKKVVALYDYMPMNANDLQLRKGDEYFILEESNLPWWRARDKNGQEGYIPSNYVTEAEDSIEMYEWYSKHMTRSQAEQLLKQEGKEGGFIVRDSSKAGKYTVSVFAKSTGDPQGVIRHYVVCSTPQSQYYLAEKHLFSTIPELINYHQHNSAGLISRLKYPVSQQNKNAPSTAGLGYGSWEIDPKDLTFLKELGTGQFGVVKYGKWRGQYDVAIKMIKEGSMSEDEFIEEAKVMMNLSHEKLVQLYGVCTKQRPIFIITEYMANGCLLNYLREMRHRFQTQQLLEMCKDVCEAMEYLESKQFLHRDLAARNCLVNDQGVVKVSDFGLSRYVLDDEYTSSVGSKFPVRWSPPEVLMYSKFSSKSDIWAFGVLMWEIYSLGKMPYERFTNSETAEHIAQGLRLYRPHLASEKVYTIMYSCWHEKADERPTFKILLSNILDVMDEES", "details": "in intact cells and in cell-free systems; cited from earlier work"}, "[11]": {"molecular_target": "Bruton's tyrosine kinase (BTK) (Homo sapiens, UniProt Q06187)", "sequence (Q06187 whole entry, species assumed)": "as above", "details": "in intact cells and in cell-free systems; cited from earlier work"}, "[12]": {"details": "SU-DHL-6, SU-DHL-2, 500 nM for 1, 2, 4, 8 or 12 hours"}}, "data": [{"molecule": "Cc1sc2c(c1C)C(c1ccc(Cl)cc1)=N[C@@H](CC(=O)Nc1ccc(O)cc1)c1nnc(C)n1-2", "note": "[Compound (1-1), 2-[(6S)-4-(4-chlorophenyl)-2,3,9-trimethyl-6H-thienol[3,2-f]-[1,2,4]triazolo[4,3-a][1,4]diazepin-6-yl]-N-(4-hydroxyphenyl)acetamide dihydrate]", "values": [{"measurement": "MYD88/JAK/STAT pathway expression (additional GEP)", "setting": "[1]; Example 7", "result": "down-regulation of the MYD88/JAK/STAT pathway"}, {"measurement": "genes downregulated (GEP), members of the NFKB, TLR and JAK/STAT pathways", "setting": "[1]; [12]", "result": "downregulated MYD88, IRAK1, TLR6, IL6, STAT3, and TNFRSF17"}, {"measurement": "most frequently downregulated gene (GEP)", "setting": "[1]; [12]", "result": "MYC was the most frequently downregulated gene"}, {"measurement": "most upregulated genes (GEP)", "setting": "[1]; [12]", "result": "Most upregulated genes were histones"}, {"measurement": "IL10 and IL4 production", "setting": "[2]", "result": "IL10 and IL4 production was reduced"}, {"measurement": "nuclear localization of p50 (NFKB 1)", "setting": "[3]", "result": "reduction in nuclear localization of p50 (NFKB 1)"}, {"measurement": "transcriptionally active pSTAT3", "setting": "[3]; 2 ABC cell lines", "result": "reduction of transcriptionally active pSTAT3"}, {"measurement": "NFKB target gene expression (PCR)", "setting": "[4]", "result": "NFKB target genes (IRF4, TNFAIP3 and BIRC3) were also downregulated"}]}, {"molecule": "COc1cccc2cc(-c3nc([C@H]4CC[C@H](C(=O)O)CC4)n4ncnc(N)c34)[nH]c12", "note": "[OSI-027]", "values": [{"measurement": "IC50", "setting": "[5]", "result": 22, "unit": "nM"}]}, {"molecule": "COc1ccc(COc2cc3oc(=O)c4cc(C(C)O)ccc4c3cc2OC)cc1", "note": "(stereo not shown) [Palomid 529]", "values": [{"measurement": "effect on phosphorylation markers", "setting": "[6]", "result": "reduces phosphorylation of pAktS473, pGSK3βS9, and pS6 but neither pMAPK nor pAktT308"}, {"measurement": "mTORC2 complex inhibition", "setting": "[7]", "result": "inhibits both the mTORC1 and mTORC2 complexes"}, {"measurement": "mTORC1 complex inhibition", "setting": "[5]", "result": "inhibits both the mTORC1 and mTORC2 complexes"}]}, {"molecule": "CC1=C(O)C(=O)[C@@H]2O[C@@H]2C1=O", "note": "[Terreic acid, (1R,6S)-3-Hydroxy-4-methyl-7-oxabicyclo[4.1.0]hept-3-ene-2,5-dione]", "values": [{"measurement": "activity of PKC", "setting": "[8]", "result": "without affecting the activity of PKC"}, {"measurement": "effect on activities of Lyn, Syk, PKA, casein kinase I, ERK1, ERK2 and p38 kinase", "setting": "[9]", "result": "little or no effect"}, {"measurement": "interaction between BTK and PKCβII", "setting": "[10]", "result": "Inhibits the catalytic activity of BTK as well as the interaction between BTK and PKCβII"}, {"measurement": "catalytic activity of BTK", "setting": "[11]", "result": "Inhibits the catalytic activity of BTK"}]}]}
